# Reference: patent US12257214B2, “Compositions and methods comprising deoxy-pentitols” (The Charlotte Mecklenburg Hospital Authority, priority 2021, dated 2025)
# Legend:
# A-172 = assay: ATPlite cell IC50 screening, A-172; type: cell-based; settings: Homo sapiens; A-172, Glioblastoma; ATPlite luminescence
# Experimental: (§1) In brief, the cells were cultures in relevant medium and treated with a range of 9 doses of 2-deoxyribitol, from 10 mM, 5 mM, 2.5 mM, 1.25 mM, 0.62 mM, 0.31 mM, 0.08 mM, and 0.04 mM. Cells were diluted in the corresponding ATCC recommended medium and dispensed in a 384-well plate, depending on the cell line used, at a density of 100-6400 cells per well in 45 μl medium. For each used cell line the optimal cell density was used. The margins of the plate were filled with phosphate-buffered saline. Plated cells were incubated in a humidified atmosphere of 5% CO2 at 37° C. After 24 hours, 5 μl of compound dilution was added and plates were further incubated. At the end of experiment (t=end), 24 μl of ATPlite 1Step™ (PerkinElmer) solution was added to each well, and subsequently shaken for 2 minutes. After 10 minutes of incubation in the dark, the luminescence was recorded on an Envision multimode reader (PerkinElmer). IC50 was determined in comparison with the control samples. The cell lines tested and their corresponding disease model is indicated the left-most and middle columns, respectively. IC50 values are given in μM values in the right-most column. This screening was performed of a list of cancer cells to establish IC50 values for each of the cancer cell lines. This screening provides evidence for the potential of 2DR to treat many cancer types.
# A-204 = assay: ATPlite cell IC50 screening, A-204; type: cell-based; settings: Homo sapiens, A204; A-204, Embryonal rhabdomyosarcoma; ATPlite luminescence
# Experimental: as §1
# A-549 = assay: ATPlite cell IC50 screening, A-549; type: cell-based; settings: Homo sapiens, A549; A-549, Lung adenocarcinoma; ATPlite luminescence
# Experimental: as §1
# ACHN = assay: ATPlite cell IC50 screening, ACHN; type: cell-based; settings: Homo sapiens, Papillary renal cell carcinoma, ATPlite luminescence
# Experimental: as §1
# C-33 A = assay: ATPlite cell IC50 screening, C-33 A; type: cell-based; settings: Homo sapiens, Cervical squamous cell carcinoma, ATPlite luminescence
# Experimental: as §1
# CCF-STTG1 = assay: ATPlite cell IC50 screening, CCF-STTG1; type: cell-based; settings: Homo sapiens; CCF-STTG1, Astrocytoma; ATPlite luminescence
# Experimental: as §1
# COLO 829 = assay: ATPlite cell IC50 screening, COLO 829; type: cell-based; settings: Homo sapiens; COLO 829, Cutaneous melanoma; ATPlite luminescence
# Experimental: as §1
# Daoy = assay: ATPlite cell IC50 screening, Daoy; type: cell-based; settings: Homo sapiens, Medulloblastoma, ATPlite luminescence
# Experimental: as §1
# G-361 = assay: ATPlite cell IC50 screening, G-361; type: cell-based; settings: Homo sapiens; G-361, Melanoma; ATPlite luminescence
# Experimental: as §1
# HCT-15 = assay: ATPlite cell IC50 screening, HCT-15; type: cell-based; settings: Homo sapiens; HCT-15, Colon adenocarcinoma; ATPlite luminescence
# Experimental: as §1
# HuTu 80 = assay: ATPlite cell IC50 screening, HuTu 80; type: cell-based; settings: Homo sapiens, HuTu80; HuTu 80, Duodenal adenocarcinoma; ATPlite luminescence
# Experimental: as §1
# KU812 = assay: ATPlite cell IC50 screening, KU812; type: cell-based; settings: Homo sapiens; KU812, Chronic myelogenous leukemia; ATPlite luminescence
# Experimental: as §1
# MG-63 = assay: ATPlite cell IC50 screening, MG-63; type: cell-based; settings: Homo sapiens; MG-63, Osteosarcoma; ATPlite luminescence
# Experimental: as §1
# MOLT-4 = assay: ATPlite cell IC50 screening, MOLT-4; type: cell-based; settings: Homo sapiens; MOLT-4, Adult T acute lymphoblastic leukemia; ATPlite luminescence
# Experimental: as §1
# NCI-H460 = assay: ATPlite cell IC50 screening, NCI-H460; type: cell-based; settings: Homo sapiens; NCI-H460, Large cell lung carcinoma; ATPlite luminescence
# Experimental: as §1
# PC-3 = assay: ATPlite cell IC50 screening, PC-3; type: cell-based; settings: Homo sapiens; PC-3, Prostate carcinoma; ATPlite luminescence
# Experimental: as §1
# RPMI-7951 = assay: ATPlite cell IC50 screening, RPMI-7951; type: cell-based; settings: Homo sapiens; RPMI-7951, Melanoma; ATPlite luminescence
# Experimental: as §1
# RT4 = assay: ATPlite cell IC50 screening, RT4; type: cell-based; settings: Homo sapiens, RT-4; RT4, Bladder carcinoma; ATPlite luminescence
# Experimental: as §1
# SJCRH30 = assay: ATPlite cell IC50 screening, SJCRH30; type: cell-based; settings: SJCRH30, Alveolar rhabdomyosarcoma; ATPlite luminescence
# Experimental: as §1
# SU-DHL-6 = assay: ATPlite cell IC50 screening, SU-DHL-6; type: cell-based; settings: Homo sapiens; SU-DHL-6, Diffuse large B-cell lymphoma; ATPlite luminescence
# Experimental: as §1
# SW48 = assay: ATPlite cell IC50 screening, SW48; type: cell-based; settings: Homo sapiens; SW48, Colon adenocarcinoma; ATPlite luminescence
# Experimental: as §1
# SW837 = assay: ATPlite cell IC50 screening, SW837; type: cell-based; settings: Homo sapiens; SW837, Rectal adenocarcinoma; ATPlite luminescence
# Experimental: as §1
# SW982 = assay: ATPlite cell IC50 screening, SW982; type: cell-based; settings: Homo sapiens; SW982, Biphasic synovial sarcoma; ATPlite luminescence
# Experimental: as §1
# [1] = system: normal human myoblasts (HSKM cells); assay: Normal human myoblast culture (FIG. 7); type: cell-based; settings: HSKM cells, 2, 10, 20 mM, 3 days
# Experimental: Three different doses were tested as labeled in the images: 2 mM (top right panel), 10 mM (bottom left panel), and 20 mM (bottom right panel) 2-deoxyribitol. No-drug control is shown in top left panel. Drug effect on growth of the cells is not clearly visible.
# (§2) In contrast, 2-deoxyribitol produced unnoticeable changes in cell culture of normal human myoblasts or differentiated myotubes (FIG. 7), indicating its low toxicity potential to normal cell populations. In this study, normal human myoblasts (HSKM cells) were treated with 2-deoxyribitol (Drug) for 3 days.
# [2] = system: normal human breast epithelial cells MCF7-10F; assay: Normal breast epithelial cell culture (FIG. 8); type: cell-based; settings: 2-40 mM, 4 days
# Experimental: 2-deoxyribitol was given in ascending doses of 2 mM (top middle panel), 5 mM (top right panel), 10 mM (bottom left panel), 20 mM (bottom middle panel), and 40 mM (bottom right panel). No significant differences were observed between the control and drug-treated cells at any dose.
# as §2
# Water solubility = type: physicochemical
# Excerpt: It can be delivered by direct application to local areas, given orally or through vasculature system. 2-deoxyribitol can also be delivered before, at the same time, or after the use of other drugs. 2-deoxyribitol can be applied as treatment for cancers before, at the same time, or after any other treatment procedure(s). In addition, the effect of 2-deoxyribitol on three tissue types of cancers indicate that it can be applied for many other epithelial cancers.
smiles,measurement,setting,value
OCC[C@H](O)[C@H](O)CO [2-deoxyribitol],IC50,A-172,> 10 mM
same,IC50,A-204,6.06 mM
same,IC50,A-549,9.97 mM
same,IC50,ACHN,3.14 mM
same,IC50,C-33 A,7.6 mM
same,IC50,CCF-STTG1,5.84 mM
same,IC50,COLO 829,6.37 mM
same,IC50,Daoy,6.24 mM
same,IC50,G-361,> 10 mM
same,IC50,HCT-15,7.7 mM
same,IC50,HuTu 80,4.92 mM
same,IC50,KU812,4.3 mM
same,IC50,MG-63,9.27 mM
same,IC50,MOLT-4,4.94 mM
same,IC50,NCI-H460,3.17 mM
same,IC50,PC-3,3.68 mM
same,IC50,RPMI-7951,6.77 mM
same,IC50,RT4,> 10 mM
same,IC50,SJCRH30,4.46 mM
same,IC50,SU-DHL-6,4.06 mM
same,IC50,SW48,4.49 mM
same,IC50,SW837,9.79 mM
same,IC50,SW982,2.78 mM
same,cell density or myofiber formation versus control,[1],No difference in cell density or myofiber formation
same,growth inhibition or cell death of normal breast cells,[2],did not inhibit growth or cause cell death
same,water solubility,Water solubility,water soluble
